{"source": "paper PMC12903969", "about": "“Discovery of a Novel and Potent Kir4.1 Inhibitor as a Safe and Rapid‐Onset Antidepressant Agent in Mice” (Advanced Science, 2025)", "key": {"mice [1]": {"test_system": "mice", "assay": "Shuttle box test (SBT)", "assay_type": "in vivo", "description": "This test was designed to measure learning and memory function in rodents. The shuttle box consists of two compartments connected by a freely passable gate. The mice were allowed to explore the test chamber freely for 5 min before the test to eliminate exploratory reflexes. Each mouse was placed in one compartment of the shuttle box. The conditioning protocol began with a 5‐s conditioned stimulus presentation of light (200 lux) and auditory tone (100 dB, 1000 Hz), followed immediately by a 3‐s footshock (300 µA) unconditioned stimulus. Escape to the opposite compartment during the conditioned stimulus presentation was scored as an active avoidance response, whereas escape occurring only after shock onset was recorded as […]. […] Each test session consisted of 40 trials with 10‐s inter‐trial intervals, with the number of active avoidance responses systematically recorded."}, "mice [2]": {"test_system": "mice", "assay": "Acute forced swim test (FST)", "assay_type": "in vivo", "conditions": "30 and 60 mg kg−1", "description": "Mice were placed individually in a transparent glass cylinder (25 cm high, 10 cm wide) filled with water (temperature 23–25 °C) to a depth of 10 cm, and prevented from making contact with the bottom. Mice behaviors were videotaped from each side. The observation period lasted for 6 min, with the final 4 min used to measure immobile behavior, which was processed using the AnyMaze Tracking System (Stoelting)."}, "hERG": {"biological_target": "T1, hERG (Homo sapiens, UniProt Q12809)", "T1 construct": "expressed in transfected cells; host or cells: CHO-hERG", "T1 sequence (Q12809 whole entry)": "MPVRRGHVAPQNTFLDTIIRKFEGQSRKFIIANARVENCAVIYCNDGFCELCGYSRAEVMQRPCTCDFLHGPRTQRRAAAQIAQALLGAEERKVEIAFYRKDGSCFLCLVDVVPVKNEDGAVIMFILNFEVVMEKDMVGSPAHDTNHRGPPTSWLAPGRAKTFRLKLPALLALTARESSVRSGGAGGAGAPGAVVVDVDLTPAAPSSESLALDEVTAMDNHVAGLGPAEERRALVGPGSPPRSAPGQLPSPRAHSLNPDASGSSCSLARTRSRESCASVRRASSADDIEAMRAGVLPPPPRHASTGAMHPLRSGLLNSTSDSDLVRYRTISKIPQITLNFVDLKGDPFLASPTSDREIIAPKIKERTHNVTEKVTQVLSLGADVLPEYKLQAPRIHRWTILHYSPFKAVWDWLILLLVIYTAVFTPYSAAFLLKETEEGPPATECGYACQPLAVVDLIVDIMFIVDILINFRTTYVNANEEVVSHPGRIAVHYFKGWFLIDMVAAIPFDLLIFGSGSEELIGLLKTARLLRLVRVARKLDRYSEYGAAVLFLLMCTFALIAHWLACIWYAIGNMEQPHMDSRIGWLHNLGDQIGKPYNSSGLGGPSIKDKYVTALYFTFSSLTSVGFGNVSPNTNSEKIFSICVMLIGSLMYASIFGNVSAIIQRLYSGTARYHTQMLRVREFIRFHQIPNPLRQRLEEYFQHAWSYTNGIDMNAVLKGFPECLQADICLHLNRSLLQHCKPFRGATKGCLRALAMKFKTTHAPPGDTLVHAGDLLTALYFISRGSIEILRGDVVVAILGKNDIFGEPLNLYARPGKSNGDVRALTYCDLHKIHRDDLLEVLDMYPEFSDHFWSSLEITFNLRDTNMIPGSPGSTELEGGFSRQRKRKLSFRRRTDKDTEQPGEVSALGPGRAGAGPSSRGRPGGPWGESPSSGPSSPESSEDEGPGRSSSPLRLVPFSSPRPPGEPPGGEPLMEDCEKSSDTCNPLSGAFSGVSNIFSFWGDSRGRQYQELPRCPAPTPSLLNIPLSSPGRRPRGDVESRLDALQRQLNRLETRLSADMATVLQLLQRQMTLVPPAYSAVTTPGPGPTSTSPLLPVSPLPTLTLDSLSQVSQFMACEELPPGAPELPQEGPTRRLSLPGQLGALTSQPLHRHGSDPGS", "assay": "hERG inhibition (QPatch, CHO-hERG cells)", "assay_type": "cell-based", "description": "CHO‐hERG cells were cultured to 60–80% confluency in 175‐cm^2 flasks, washed with PBS, and digested with detachin. After centrifugation, the cells were resuspended in medium at 2–5×10^6 mL^−1. Patch‐clamp recordings were performed using a QPatch with extracellular solution (140 NaCl, 5 KCl, 2 CaCl2, 1 MgCl2, 10 HEPES, 10 glucose, pH 7.4) and intracellular solution (145 KCl, 1 MgCl2, 5 EGTA, 10 HEPES, 5 Mg‐ATP, pH 7.3). Cells were clamped at −80 mV, stimulated with a 50 ms pre‐pulse to −50 mV, followed by 2 s depolarization to +40 mV, and 2 s repolarization to −50 mV, repeated every 5 s. After baseline recording, the test compound at various concentrations or 300 nM cisapride (positive control) was applied."}, "[3]": {"biological_target": "T2, 5-HTT (serotonin transporter, SERT) (Homo sapiens, UniProt P31645)", "T2 construct": "expressed in transfected cells", "T2 sequence (P31645 whole entry)": "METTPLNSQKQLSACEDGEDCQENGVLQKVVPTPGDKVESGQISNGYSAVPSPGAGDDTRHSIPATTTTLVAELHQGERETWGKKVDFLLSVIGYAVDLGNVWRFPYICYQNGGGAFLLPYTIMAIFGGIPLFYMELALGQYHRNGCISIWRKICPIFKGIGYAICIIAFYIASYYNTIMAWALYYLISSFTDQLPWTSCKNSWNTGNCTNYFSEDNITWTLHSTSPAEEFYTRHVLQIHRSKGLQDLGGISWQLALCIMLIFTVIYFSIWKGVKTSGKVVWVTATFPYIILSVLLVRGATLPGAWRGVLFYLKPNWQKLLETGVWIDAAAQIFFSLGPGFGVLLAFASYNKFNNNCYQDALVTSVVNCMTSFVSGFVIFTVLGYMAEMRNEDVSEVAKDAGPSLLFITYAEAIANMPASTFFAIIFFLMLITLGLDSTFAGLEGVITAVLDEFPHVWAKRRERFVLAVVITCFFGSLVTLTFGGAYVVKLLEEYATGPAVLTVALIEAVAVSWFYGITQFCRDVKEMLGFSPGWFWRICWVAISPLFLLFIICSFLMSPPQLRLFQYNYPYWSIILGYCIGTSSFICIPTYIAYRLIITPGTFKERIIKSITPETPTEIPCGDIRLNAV", "assay": "5-HTT functional assay (fluorescent neurotransmitter transporter uptake)", "assay_type": "cell-based", "parameters": "SERT inhibition, replicates: unit not given here", "description": "The 5‐HTT/DAT functional assays were commissioned by Elsevier Science and Technology Co., Ltd. (Beijing). A fluorescence‐based neurotransmitter assay was conducted using a Neurotransmitter Transporter Uptake Assay Kit (Molecular Devices, R8174), according to the manufacturer's protocol. Flp‐in T‐rex 293 cells transiently expressing the human norepinephrine transporter and HEK293 cells stably expressing the human dopamine or serotonin transporters were seeded in PDL‐coated 384‐well plates and incubated overnight. Subsequently, the medium was removed, and the cells were treated with 16 µL of compounds diluted in assay buffer for 0.5 h at 37 °C. Centanafadine and 0.1% DMSO served as positive and negative controls, respectively. Then, 16 µL of dye mix prepared in 1× Hanks’ Balanced Salt Solution was added to each well and incubated at 37 °C for 1 h. Finally, the data point was acquired via a fluorescence plate reader with excitation at 450 nm and emission at 528 nm."}, "Kir4.2": {"biological_target": "T3, Kir4.2 (Homo sapiens, UniProt Q99712)", "T3 construct": "host or cells: CHO-K1", "T3 sequence (Q99712 1-375)": "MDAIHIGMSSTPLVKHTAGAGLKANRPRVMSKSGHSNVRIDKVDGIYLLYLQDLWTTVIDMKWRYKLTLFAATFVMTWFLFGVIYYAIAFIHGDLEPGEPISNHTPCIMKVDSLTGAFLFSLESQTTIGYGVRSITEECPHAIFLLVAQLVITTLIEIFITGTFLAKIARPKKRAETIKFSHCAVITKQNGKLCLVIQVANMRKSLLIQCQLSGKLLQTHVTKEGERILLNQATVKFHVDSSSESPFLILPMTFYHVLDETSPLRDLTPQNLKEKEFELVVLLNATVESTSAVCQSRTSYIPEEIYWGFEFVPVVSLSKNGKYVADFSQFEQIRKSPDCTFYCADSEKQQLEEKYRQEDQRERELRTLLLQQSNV", "assay": "Whole-cell patch clamp, Kir4.2", "assay_type": "cell-based", "description": "Plasmids encoding WT human potassium channels Kir1.1, Kir2.1, Kir2.2, Kir4.1, and Kir4.2 were obtained from the Beijing Genomics Institute. All point mutations were constructed using the QuickChange II Site‐Directed Mutagenesis Kit (Stratagene) and subsequently verified by sequencing.\nCHO‐K1 cells were maintained in DMEM/F12 growth medium containing 10% fetal bovine serum. Plasmids encoding the target genes (3600 ng) and enhanced green fluorescent protein (400 ng) were cotransfected into cells using Lipofectamine 2000 (Invitrogen) in accordance with the manufacturer's instructions. Cells were seeded onto poly‐d‐lysine (PDL)‐coated glass coverslips 1 h prior to electrophysiological recordings. All cells were cultured under standard conditions of 5% CO2 at 37 °C.\nWhole‐cell patch‐clamp recordings were obtained either in transiently transfected CHO‐K1 cells or in primary cultured astrocytes at room temperature using standard patch‐clamp techniques with an Axopatch‐700B amplifier (Axon Instruments). The signals were filtered at 2 kHz and sampled at 20 kHz using the Digidata 1440A interface (Axon Instruments). The resistance of borosilicate glass pipettes was typically 2–4 MΩ when filled with the internal solution. Drug application was facilitated using a BPS perfusion system (ALA Scientific Instruments). Macroscopic currents generated by expressed potassium channels were recorded under the voltage‐clamp conditions with an internal pipette solution composed of (in mM): 140 KCl, 5 NaCl, 1 CaCl2, 1 MgCl2, 10 HEPES, and 10 EGTA, pH 7.2 adjusted with KOH. The external solution contained (in mM): 140 NaCl, 5 KCl, 2 CaCl2, 1 MgCl2, 10 glucose, and 10 HEPES, pH 7.4 adjusted with NaOH. Currents were elicited with a hyperpolarized voltage at −120 mV from the holding potential of −80 mV, followed by a ramp voltage depolarizing to +50 mV. Astrocytic resting membrane potentials were recorded under current‐clamp conditions (I = 0 pA) using standard internal and external solutions, determined immediately after achieving whole‐cell mode."}}, "note": "pIC50: −log10 of the molar value. Values joined by “and” are separate entries in the source; they are usually repeats but may differ in a detail not shown here. Equal values may be shown once."}
{"smiles": "c1ccc2c(c1)oc1ccc(Nc3ccnc(NCCCN4CCOCC4)n3)cc12", "note": "[JX3212, N^4-(dibenzo[b,d]furan-2-yl)-N^2-(3-morpholinopropyl)pyrimidine-2,4-diamine]", "values": [{"measurement": "shuttle box active avoidance responses (in words)", "setting": "mice [1]; chronic 10 mg kg−1 per day", "value": "no significant differences"}, {"measurement": "SBT active avoidance responses, single mice", "setting": "mice [1]; chronic 10 mg/kg per day (Fig 5G)", "value": "22 and 29 and 31 and 32 and 21 and 24 and 28 and 25"}, {"measurement": "immobility time in acute FST (in words)", "setting": "mice [2]", "value": "significantly reducing immobility time"}, {"measurement": "IC50", "setting": "hERG", "value": 1.02, "unit": "µM"}, {"measurement": "pIC50", "setting": "[3]", "value": 5.19}, {"measurement": "SERT inhibition, replicates", "setting": "[3]; concentration 3", "value": "13.3 and 7.67"}, {"measurement": "SERT inhibition, replicates", "setting": "[3]; concentration 10", "value": "17.62 and 13.2"}, {"measurement": "SERT inhibition, replicates", "setting": "[3]; concentration 30", "value": "16.11 and 14.3"}, {"measurement": "SERT inhibition, replicates", "setting": "[3]; concentration 100", "value": "16.51 and 15.81"}, {"measurement": "SERT inhibition, replicates", "setting": "[3]; concentration 300", "value": "18.52 and 16.01"}, {"measurement": "SERT inhibition, replicates", "setting": "[3]; concentration 1000", "value": "49.66 and 31.98"}, {"measurement": "SERT inhibition, replicates", "setting": "[3]; concentration 3000", "value": "51.87 and 29.87"}, {"measurement": "SERT inhibition, replicates", "setting": "[3]; concentration 10000", "value": "69.95 and 46.05"}, {"measurement": "SERT inhibition, replicates", "setting": "[3]; concentration 30000", "value": "87.23 and 70.86"}, {"measurement": "SERT inhibition, replicates", "setting": "[3]; concentration 100000 (unit not given)", "value": "112.04 and 105.72"}, {"measurement": "Kir4.2 blockade", "setting": "Kir4.2; 3 µM, mean ± SEM", "value": "86.57 ± 10.51", "unit": "%"}, {"measurement": "Kir isoforms: Kir4.2 inhibition, single recordings", "setting": "Kir4.2; JX3212 3 µM (Fig 2A)", "value": "93.8526 and 74.5275"}, {"measurement": "inhibition at 3 µM", "setting": "Kir4.2; JX3212 3 µM (Fig 2A), read-out: Kir isoforms: Kir4.2 inhibition, single recordings", "value": 91.3, "unit": "%"}]}
